This passage reports IC50 results from patent US11136296B2, “Substituted N-arylethyl-2-arylquinoline-4-carboxamides and use thereof” (Bayer Aktiengesellschaft, priority 2017, dated 2021).

Sequence of FP receptor (P43088 whole entry): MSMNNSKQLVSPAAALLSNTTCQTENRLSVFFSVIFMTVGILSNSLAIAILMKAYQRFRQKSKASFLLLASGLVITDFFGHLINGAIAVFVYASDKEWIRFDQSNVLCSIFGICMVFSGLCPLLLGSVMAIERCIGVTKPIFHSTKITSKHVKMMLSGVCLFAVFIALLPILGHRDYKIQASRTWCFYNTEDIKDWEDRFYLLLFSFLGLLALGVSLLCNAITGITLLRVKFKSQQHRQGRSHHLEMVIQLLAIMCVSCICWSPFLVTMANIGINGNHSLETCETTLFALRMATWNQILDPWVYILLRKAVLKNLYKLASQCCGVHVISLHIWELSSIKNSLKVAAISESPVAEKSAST

This assay has as its target FP receptor (Homo sapiens (Human), UniProt P43088). Description: In vitro test of inhibition of human FP receptor activity (PGF2α-induced calcium flux in FP-expressing CHEM1 cells). The class given is cell-based. To be noted: PGF2α-induced (2 nM) calcium flux in FP-expressing CHEM1 cells; some as mean values from multiple determinations. The text has this:
Table 1 below lists the IC50 values from this assay for individual working examples of the invention (some as mean values from multiple independent individual determinations): […]
The IC50 is the concentration that gives 50% inhibition. Take `Cc1c(-c2ccccc2)nc2ccc(Br)cc2c1C(=O)NCC(CC(=O)O)c1c(Cl)cccc1Cl` (racemic) [Example 78, (+/−)-4-{[(6-Bromo-3-methyl-2-phenylquinolin-4-yl)carbonyl]amino}-3-(2,6-dichlorophenyl)butanoic Acid]: the IC50 came to 100 nM.
`Cc1c(-c2ccccc2)nc2ccc(Br)cc2c1C(=O)NCC(C)(CC(=O)O)c1ncccc1Cl` (racemic) [Example 84, (+/−)-4-{[(6-Bromo-3-methyl-2-phenylquinolin-4-yl)carbonyl]amino}-3-(3-chloropyridin-2-yl)-3-methylbutanoic Acid]: the IC50 was 16 nM.
As for `Cc1c(-c2ccccc2)nc2ccc(Br)cc2c1C(=O)NCC(CC(=O)O)c1c(F)cccc1Cl` (racemic) [Example 87, (+/−)-4-{[(6-Bromo-3-methyl-2-phenylquinolin-4-yl)carbonyl]amino}-3-(2-chloro-6-fluorophenyl)butanoic Acid], the IC50 is 23 nM.
Consider `Cc1ccc(C(CNC(=O)c2c(C)c(-c3ccccc3)nc3ccc(Br)cc23)CC(=O)O)cc1` (racemic) [Example 90, (+/−)-4-{[(6-Bromo-3-methyl-2-phenylquinolin-4-yl)carbonyl]amino}-3-(4-methylphenyl)butanoic Acid], for which the IC50 was 470 nM.
Take `Cc1cccc(C(CNC(=O)c2c(C)c(-c3ccccc3)nc3ccc(Br)cc23)CC(=O)O)c1` (racemic) [Example 93, (+/−)-4-{[(6-Bromo-3-methyl-2-phenylquinolin-4-yl)carbonyl]amino}-3-(3-methylphenyl)butanoic Acid]: the IC50 amounted to 80 nM.
Consider `Cc1c(-c2ccccc2)nc2ccc(Br)cc2c1C(=O)NCC(CC(=O)O)c1ccccc1OC(F)(F)F` (racemic) [Example 99, (+/−)-4-{[(6-Bromo-3-methyl-2-phenylquinolin-4-yl)carbonyl]amino}-3-[2-(trifluoromethoxy)phenyl]butanoic Acid], for which the IC50 amounted to 28 nM.
For `Cc1c(-c2ccccc2)nc2ccc(Br)cc2c1C(=O)NCC(CC(=O)O)c1ccccn1` (racemic) [Example 102, (+/−)-4-{[(6-Bromo-3-methyl-2-phenylquinolin-4-yl)carbonyl]amino}-3-(pyridin-2-yl)butanoic Acid], the IC50 was found to be 460 nM.
Regarding `Cc1c(-c2ccccc2)nc2ccc(Br)cc2c1C(=O)NCC(CC(=O)O)c1ccccc1C(F)(F)F` (racemic) [Example 105, (+/−)-4-{[(6-Bromo-3-methyl-2-phenylquinolin-4-yl)carbonyl]amino}-3-[2-(trifluoromethyl)phenyl]butanoic Acid], the IC50 stood at 92 nM.
With `COc1cccnc1C(CNC(=O)c1c(C)c(-c2ccccc2)nc2ccc(Br)cc12)CC(=O)O` (racemic) [Example 108, (+/−)-4-{[(6-Bromo-3-methyl-2-phenylquinolin-4-yl)carbonyl]amino}-3-(3-methoxypyridin-2-yl)butanoic Acid], the IC50 came out at 78 nM.
As to `Cc1c(-c2ccccc2)nc2ccc(Br)cc2c1C(=O)NCC(c1ccccc1Cl)C(C)(C)C(=O)O` (racemic) [Example 111, (+/−)-4-{[(6-Bromo-3-methyl-2-phenylquinolin-4-yl)carbonyl]amino}-3-(2-chlorophenyl)-2,2-dimethylbutanoic Acid], the IC50 amounted to 89 nM.
In the case of `Cc1c(-c2ccccc2)nc2ccc(Br)cc2c1C(=O)NCC(C)(CC(=O)O)c1ccccc1Cl` (racemic) [Example 114, (+/−)-4-{[(6-Bromo-3-methyl-2-phenylquinolin-4-yl)carbonyl]amino}-3-(2-chlorophenyl)-3-methylbutanoic Acid] it was 18 nM.
Consider `Cc1c(-c2ccccc2)nc2ccc(Br)cc2c1C(=O)NCC(C)(CC(=O)O)c1ccccn1` (racemic) [Example 117, (+/−)-4-{[(6-Bromo-3-methyl-2-phenylquinolin-4-yl)carbonyl]amino}-3-methyl-3-(pyridin-2-yl)butanoic Acid], for which the half-inhibitory concentration (IC50) was found to be 240 nM.
As for `COc1ccccc1C(C)(CNC(=O)c1c(C)c(-c2ccccc2)nc2ccc(Br)cc12)CC(=O)O` (racemic) [Example 120, (+/−)-4-{[(6-Bromo-3-methyl-2-phenylquinolin-4-yl)carbonyl]amino}-3-(2-methoxyphenyl)-3-methylbutanoic Acid], the concentration for half-maximal inhibition (IC50) turned out to be 30 nM.
With `COc1ccc(F)cc1C(CNC(=O)c1c(C)c(-c2ccccc2)nc2ccc(Br)cc12)CC(=O)O` (racemic) [Example 123, (+/−)-4-{[(6-Bromo-3-methyl-2-phenylquinolin-4-yl)carbonyl]amino}-3-(5-fluoro-2-methoxyphenyl)butanoic Acid], the IC50 is 11 nM.
In the case of `COc1cccc(F)c1C(CNC(=O)c1c(C)c(-c2ccccc2)nc2ccc(Br)cc12)CC(=O)O` (racemic) [Example 126, (+/−)-4-{[(6-Bromo-3-methyl-2-phenylquinolin-4-yl)carbonyl]amino}-3-(2-fluoro-6-methoxyphenyl)butanoic Acid] it was 39 nM; in that of `CCOc1ccccc1C(CNC(=O)c1c(C)c(-c2ccccc2)nc2ccc(Br)cc12)CC(=O)O` (racemic) [Example 129, (+/−)-4-{[(6-Bromo-3-methyl-2-phenylquinolin-4-yl)carbonyl]amino}-3-(2-ethoxyphenyl)butanoic Acid], 130 nM.
Consider `COc1ccc(F)cc1C(C)(CNC(=O)c1c(C)c(-c2ccccc2)nc2ccc(Br)cc12)CC(=O)O` (racemic) [Example 132, (+/−)-4-{[(6-Bromo-3-methyl-2-phenylquinolin-4-yl)carbonyl]amino}-3-(5-fluoro-2-methoxyphenyl)-3-methylbutanoic Acid], for which the IC50 worked out at 32 nM.
`COc1c(F)cc(F)cc1C(C)(CNC(=O)c1c(C)c(-c2ccccc2)nc2ccc(Br)cc12)CC(=O)O` (racemic) [Example 135, (+/−)-4-{[(6-Bromo-3-methyl-2-phenylquinolin-4-yl)carbonyl]amino}-3-(3,5-difluoro-2-methoxyphenyl)-3-methylbutanoic Acid]: the IC50 came to 13 nM.
For the compound `COc1cc(F)ccc1C(C)(CNC(=O)c1c(C)c(-c2ccccc2)nc2ccc(Br)cc12)CC(=O)O` (racemic) [Example 138, (+/−)-4-{[(6-Bromo-3-methyl-2-phenylquinolin-4-yl)carbonyl]amino}-3-(4-fluoro-2-methoxyphenyl)-3-methylbutanoic Acid], the IC50 was found to be 42 nM.
Turning to `COc1ccccc1C(CNC(=O)c1c(C)c(-c2ccccc2)nc2ccc(Br)cc12)C(F)(F)C(=O)O` (racemic) [Example 141, (+/−)-4-{[(6-Bromo-3-methyl-2-phenylquinolin-4-yl)carbonyl]amino}-2,2-difluoro-3-(2-methoxyphenyl)butanoic Acid], the IC50 stood at 24 nM.
Take `COc1cccc(F)c1C(C)(CNC(=O)c1c(C)c(-c2ccccc2)nc2ccc(Br)cc12)CC(=O)O` (racemic) [Example 142, (+/−)-4-{[(6-Bromo-3-methyl-2-phenylquinolin-4-yl)carbonyl]amino}-3-(2-fluoro-6-methoxyphenyl)-3-methylbutanoic Acid]: the 50% inhibitory concentration (IC50) is 15 nM.
As for `Cc1c(-c2ccccc2)nc2ccc(Br)cc2c1C(=O)NC(C)C(CC(=O)O)c1ccccc1Cl` (racemic) [Example 145, (+/−)-4-{[(6-Bromo-3-methyl-2-phenylquinolin-4-yl)carbonyl]amino}-3-(2-chlorophenyl)pentanoic Acid], the IC50 amounted to 49 nM.
The value for `Cc1c(-c2ccccc2)nc2ccc(Br)cc2c1C(=O)NC(C)C(CC(=O)O)c1ccccc1Cl` (racemic) [Example 148, (+/−)-4-{[(6-Bromo-3-methyl-2-phenylquinolin-4-yl)carbonyl]amino}-3-(2-chlorophenyl)pentanoic Acid] was 42 nM.
The value for `Cc1c(-c2ccccc2)nc2ccc(Br)cc2c1C(=O)NCC(CCC(=O)O)c1ccccc1Cl` (racemic) [Example 151, (+/−)-5-{[(6-Bromo-3-methyl-2-phenylquinolin-4-yl)carbonyl]amino}-4-(2-chlorophenyl)pentanoic Acid] was 7.8 nM; that for `Cc1c(-c2ccccc2)nc2ccc(Br)cc2c1C(=O)NCC(C)(CCC(=O)O)c1ccccc1Cl` (racemic) [Example 154, (+/−)-5-{[(6-Bromo-3-methyl-2-phenylquinolin-4-yl)carbonyl]amino}-4-(2-chlorophenyl)-4-methylpentanoic Acid] was 15 nM; that for `Cc1c(-c2ccccc2)nc2ccc(Br)cc2c1C(=O)NCC(CCC(=O)O)c1c(F)cccc1Cl` (racemic) [Example 157, (+/−)-5-{[(6-Bromo-3-methyl-2-phenylquinolin-4-yl)carbonyl]amino}-4-(2-chloro-6-fluorophenyl)pentanoic Acid] was 3.7 nM.
Take `Cc1ccccc1C(CCC(=O)O)CNC(=O)c1c(C)c(-c2ccccc2)nc2ccc(Br)cc12` (racemic) [Example 160, (+/−)-5-{[(6-Bromo-3-methyl-2-phenylquinolin-4-yl)carbonyl]amino}-4-(2-methylphenyl)pentanoic Acid]: the IC50 was found to be 13 nM.
`Cc1c(-c2ccccc2)nc2ccc(Br)cc2c1C(=O)NCC(CCC(=O)O)c1cc(F)ccc1Cl` (racemic) [Example 163, (+/−)-5-{[(6-Bromo-3-methyl-2-phenylquinolin-4-yl)carbonyl]amino}-4-(2-chloro-5-fluorophenyl)pentanoic Acid]: the IC50 came to 8.7 nM.
Turning to `COc1ccccc1C(CCC(=O)O)CNC(=O)c1c(C)c(-c2ccccc2)nc2ccc(Br)cc12` (racemic) [Example 166, (+/−)-5-{[(6-Bromo-3-methyl-2-phenylquinolin-4-yl)carbonyl]amino}-4-(2-methoxyphenyl)pentanoic Acid], the half-inhibitory concentration (IC50) was 6.1 nM.
In the case of `Cc1c(-c2ccccc2)nc2ccc(Br)cc2c1C(=O)NCC(C)(CCC(=O)O)c1cc(F)ccc1Cl` (racemic) [Example 169, (+/−)-5-{[(6-Bromo-3-methyl-2-phenylquinolin-4-yl)carbonyl]amino}-4-(2-chloro-5-fluorophenyl)-4-methylpentanoic Acid], the IC50 was 26 nM.
As to `Cc1c(-c2ccccc2)nc2ccc(Br)cc2c1C(=O)NCC(CCC(=O)O)c1ccccc1F` (racemic) [Example 175, (+/−)-5-{[(6-Bromo-3-methyl-2-phenylquinolin-4-yl)carbonyl]amino}-4-(2-fluorophenyl)pentanoic Acid], the IC50 stood at 15 nM.
